Results from patent publication US12398087B2, “Methods of making bempedoic acid and compositions of the same” (Esperion Therapeutics, Inc., priority 2019, dated 2025).

Key:
[1] = Water sorption by dynamic vapor sorption; format: physicochemical; conditions: crystalline form; relative humidity of 80%, temperature of 25° C.
Experimental: The crystalline form of the compound of formula (V) may also be characterized according to its water sorption properties. […] In certain embodiments, the crystalline form of the compound of formula (V) has a water sorption isotherm, when measured at 25° C., substantially the same as shown in FIG. 6.

[2] = Thermogravimetric analysis (TGA); format: physicochemical; conditions: crystalline form; heated at 10° C./minute from ~25° C. to about 315° C.
Experimental: Thermogravimetric analysis (TGA) data for the crystalline form of the compound of formula (V) were collected using a TA Discovery 550 TGA instrument. The TGA instrument was calibrated using a nickel reference standard. Samples of the crystalline form of the compound of formula (V) were placed in open platinum sample pans and heated at a rate of 10° C./minute from about ambient temperature (˜ 25° C.) to about 315° C.

## CC(C)(CCCCCC(O)CCCCCC(C)(C)C(=O)O)C(=O)O [compound of formula (V), 8-hydroxy-2,2,14,14-tetramethylpentadecanedioic acid]
[1]
  change in mass, as determined by dynamic vapor sorption: about 0.03%
[2]
  weight loss in TGA curve: negligible weight loss prior to decomposition occurring
